Measurements taken from publication PMC6459484, “Synthetic surfactin analogues have improved anti-PEDV properties” (PLoS ONE, 2019).
≈ marks a conversion by molar mass, not a printed value. Entries after “also recorded” stand apart in the source; their conditions may differ. Square brackets hold non-standard residues; d marks the D form. Peptide text beside a SMILES is read from it. * marks the point of attachment. X1 = CCCCCCCc1ccc(-c2ccc(C(=O)*)cc2)cc1; Palmitoyl = CCCCCCCCCCCCCCCC(=O)*

Assays:
[1] = test system: porcine RBCs; type: cell-based; conditions: for CC50 (50% cytotoxicity concentration, hemolysis): red cells of porcine, 1 h
Method: Hemolytic activity was measured according to the methods described in Jingdan, with some modifications. Briefly, serial dilutions of SLPs were added to 200 uL of a 1% suspension of porcine RBCs in PBS, followed by incubation for 1 h at 37 °C. Cells were centrifuged at 1000 g for 10 min, then 100 uL of each supernatant was transferred to wells of a 96-well plate. The optical density at 540 nm was measured using a microplate reader (Infinite 200 PRO, Tecan Group Ltd., Switzerland) and % hemolysis was calculated using the formula: Hemolysis(%)=ODS-ODB/ODP-ODB×100% where ODS, ODB, and ODP represent the optical density of the SLP-treated samples, negative control and positive control, respectively. 1% Triton X-100 was used for the positive control. Each sample was run in triplicate.
Fig 3 Hemolytic activity of lipopeptides. (A) The indicated concentration of SLPs were added to a 1% porcine RBC suspension in PBS, followed by incubation for 1 h at 37 °C and centrifugation. Pictures were taken after collecting a portion of the supernatant for quantification of hemolysis. (B) Hemolytic curve. Hemolysis (measured at OD540) is shown as a function of SLP concentration. 100% represents the OD obtained using 0.1% Triton X-100-treated red blood cells.

[2] = test system: PEDV CV777; assay: Plaque reduction assay (anti-PEDV activity); type: cell-based, Porcine epidemic diarrhea virus; conditions: for Antiviral potency relative to SLP3: anti-PEDV plaque reduction, compared with SLP3; for Anti-PEDV potency compared with surfactin: plaque reduction assay, result in words
Method: Cercopithecus aethiops kidney epithelial cells (Vero, ATCC, CCL-81) were cultured in high glucose DMEM (Gibco, US), supplemented with 10% fetal bovine serum (FBS, GIBCO), at 37 °C in a 5% CO2 humidified atmosphere. Cells were routinely seeded at a density of 2×10^5 /mL in plastic tissue culture flasks (25 cm^2 flasks, Corning, USA) and passaged every 3–4 days. PEDV CV777 was provided by the Jiangsu Academy of Agricultural Sciences (JAAS).
Vero cells were seeded at 2 × 10^5 cells/well in 24-well tissue culture plates and incubated 18–24 h at 37 °C until approximately 95% confluency was reached. 100 PFU of PEDV mixed with an equal volume of SLP in DMEM or DMEM alone were incubated 10 minutes at 37 °C, then added into the wells of the Vero cells and incubated 30 minutes at 4 °C. Cells were washed 3 times with DMEM then overlaid with DMEM/1% agar and incubated 72 hours at 37 °C. The cells were fixed with 4% formaldehyde, then stained with 0.1% crystal violet after the agar overlay was removed. The data are representative of 3 biological replicates and each plaque assay was performed in triplicate and values are expressed as means ± the standard deviation. Curve fitting and EC50 were calculated with GraphPad Prism 6 using the log[inhibitor] vs. response equation.
The SLPs were tested for anti-PEDV activity using a plaque reduction assay. Serial dilutions of SLPs were incubated with an equal volume of PEDV then aliquoted onto precooled cells in 12-well plates. After the virus has adsorbed to the cells at 4 °C, SLPs were washed away. The adsorbed virus particles were then counted by plaque forming assays (Fig 2A). The results were fitted to a sigmoid-curve and plotted Fig 2B. All SLPs have potent anti-PEDV effects above 50 μg/ml, but differences in their anti-PEDV effect.
Fig 2 Anti-PEDV activities of lipopeptides. (A) PEDV was incubated with series concentrations of SLPs for 10 minutes at 37 °C. After washing cells of unadsorbed virus, the remaining infectious particles was detected by plaque assay. (B) Anti-PEDV activity (% remaining PFU) plotted as a function of lipopeptide concentration. The results of three independent experiments are shown as means ± standard deviation. 100% represents plaque counts in the control (no lipopeptide) sample.

[3] = Critical micelle concentration by surface tension (ring method); type: physicochemical; conditions: samples stood 30 min at 22 °C, intersection of two linear regression lines
Method: Surface tensions were measured using the ring method. Samples were freshly prepared in a testing flask and allowed to stand for 30 minutes at 22 °C. Surface tension measurements were made using a surface tensiometer (HLD-LST-II, HENLIDA Co., Ltd, China). Linear regressions of the drop and the flat area were performed separately for the surface tension-concentration curve. The concentration at the intersection of the two lines is the critical micelle concentration (CMC).
The CMC was calculated by measuring the surface tension of each SLP over a range of concentrations. […] Linear regressions were performed independently using the data on the descending part of the curve below the CMC and the equilibrium part above the CMC. The intersection of the linear regression lines corresponds to the CMC (Table 3).
Fig 4 Critical micelle concentrations of the SLPs. CMCs were determined for SDS, surfactin, and SLPs by surface tension. The intersection of the two linear regression lines corresponds to the CMC value, (shown by the dotted lines).

[4] = 100 PFU PEDV pre-incubated with lipopeptide 10 min at 37 °C, adsorbed to Vero cells 30 min at 4 °C, washed, agar overlay 72 h, 3 biological replicates each in triplicate, mean ± SD, log[inhibitor] vs. response fit

| Compound | EC50 [2, 4] [µg/mL] | CMC [3] [µg/mL] | EC50 ([2]; 72 h) [µg/mL] | CC50 (50% cytotoxicity concentration, hemolysis) [1] [µg/mL] | Hemolytic activity, result in words [1] | Antiviral potency relative to SLP3 [2] | Anti-PEDV potency compared with surfactin [2] |
| --- | --- | --- | --- | --- | --- | --- | --- |
| CCCCCCCc1ccc(-c2ccc(C(=O)N[C@@H](CCC(=O)O)C(=O)N[C@H](C(=O)N[C@H](CC(C)C)C(=O)N[C@@H](CC(=O)O)C(=O)N[C@H](CC(C)C)C(N)=O)C(C)C)cc2)cc1 [SLP10] (X1-EV[dL]D[dL]-NH2) | 10.6 ± 0.5 (≈ 12.3 µM) | – | – | 82.8 ± 3.4 (≈ 95.7 µM) | – | – | – |
| CCCCCCCCCCCCCCCC(=O)N[C@@H](CCC(=O)O)C(=O)N[C@H](C(=O)N[C@H](CC(C)C)C(=O)N[C@H](CC(C)C)C(=O)N[C@@H](CC(=O)O)C(N)=O)C(C)C [SLP8] (Palmitoyl-EV[dL][dL]D-NH2) | – | 20.2 | 2.6 ± 0.2 (≈ 3.15 µM) | 217.5 ± 18.9 (≈ 264 µM) | low hemolytic activity | 6.5 fold | higher potency than surfactin; also recorded: exceeded |
| CCCCCCCCCCCCCCCC(=O)N[C@@H](CCCCN)C(=O)N[C@H](C(=O)N[C@H](CC(C)C)C(=O)N[C@@H](CCCCN)C(=O)N[C@H](CC(C)C)C(N)=O)C(C)C [SLP6] (Palmitoyl-KV[dL]K[dL]-NH2) | – | 22.4 | 6.1 ± 0.3 (≈ 7.29 µM) | 12.6 ± 0.4 (≈ 15 µM) | strongest hemolytic activity | – | higher potency than surfactin |
| CCCCCCCCCCCCOS(=O)(=O)[O-].[Na+] [SDS, reference compound] | – | 296 | – | – | – | – | – |

Further lines, with some results ahead:

| EC50 [2, 4] [µg/mL] | CMC [3] [µg/mL] | EC50 ([2]; 72 h) [µg/mL] | Compound | CC50 (50% cytotoxicity concentration, hemolysis) [1] [µg/mL] | Hemolytic activity, result in words [1] | Antiviral potency relative to SLP3 [2] | Anti-PEDV potency compared with surfactin [2] |
| --- | --- | --- | --- | --- | --- | --- | --- |
| 12.8 ± 0.5 (≈ 15.5 µM) | 9.4 | – | CCCCCCCCCCCCCCCC(=O)N[C@@H](CCC(=O)O)C(=O)N[C@@H](CC(=O)O)C(=O)N[C@H](C(=O)N[C@H](CC(C)C)C(=O)N[C@H](CC(C)C)C(N)=O)C(C)C [SLP9] (Palmitoyl-EDV[dL][dL]-NH2) | 52.2 ± 2.0 (≈ 63.3 µM) | – | – | – |
| – | 10.6 | 5.4 ± 0.4 (≈ 7.61 µM) | CCCCCCCCCCCCCCCC(=O)N[C@@H](CCC(=O)O)C(=O)N[C@H](C(=O)N[C@H](CC(C)C)C(=O)N[C@H](CC(C)C)C(N)=O)C(C)C [SLP4] (Palmitoyl-EV[dL][dL]-NH2) | 12.9 ± 0.2 (≈ 18.2 µM) | – | about 3 fold | higher potency than surfactin |
| 14.0 ± 0.6 (≈ 17 µM) | 17.1 | – | CCCCCCCCCCCCCCCC(=O)N[C@@H](CCC(=O)O)C(=O)N[C@H](C(=O)N[C@@H](CC(C)C)C(=O)N[C@@H](CC(=O)O)C(=O)N[C@@H](CC(C)C)C(N)=O)C(C)C [SLP7] (Palmitoyl-EVLDL-NH2) | 274.1 ± 21.0 (≈ 332 µM) | – | – | – |
